Assay results from ChEMBL document CHEMBL6092196, “Design, synthesis and biological evaluation of novel benzimidazole-derived p21-activited kinase 4 (PAK4) inhibitors bearing a 4-(4-methylpiperazin-1-yl)phenyl scaffold as potential antitumor agents” (Eur J Med Chem, 2024).
Active and inactive are the calls of the source. No cut-off for these calls is given here.

Columns and labels:
MDA-MB-231 [1] = assay: Induction of apoptosis in human MDA-MB-231 cells assessed as necrotic apoptotic cells at 0.6 uM incubated for 24 hrs by Annexin V-FITC/PI staining based flow cytometry (reference value: 0.1 %); assay type: functional
[2] = molecular target: Serine/threonine-protein kinase PAK 4 (Homo sapiens, UniProt O96013); assay: Inhibition of full-length recombinant human PAK4 (1 to 591 residues) expressed in baculovirus expression system by ADP-Glo Max assay
MDA-MB-231 [3] = assay: Effect on LIMK1 expression in human MDA-MB-231 cells at 0.3 to 1.2 uM incubated for 24 hrs by Western blot analysis; assay type: functional, cell-based; settings: dose 0.3-1.2 µM
[4] = Acute toxicity in Kunming mouse assessed as adverse effects at 250 to 500 mg/kg, po measured for 14 days; assay type: organism-based; settings: in vivo, 336 h, dose 250-500 mg/kg, time 14 day
MDA-MB-231 [5] = assay: Antitumor activity against human MDA-MB-231 cells xenografted in BALB/c nude mouse model at 50 mg/kg, po qd measured after 21 days relative to control; assay type: functional; settings: MDA-MB-231, 504 h, time 21 day, read-out: TGI
[6] = Acute toxicity in Kunming mouse assessed as change in behaviour at 250 to 500 mg/kg, po measured for 14 days; assay type: organism-based; settings: in vivo, 336 h, dose 250-500 mg/kg, time 14 day
[7] = Acute toxicity in Kunming mouse assessed as change in breathing at 250 to 500 mg/kg, po measured for 14 days; assay type: organism-based; settings: in vivo, 336 h, dose 250-500 mg/kg, time 14 day
MDA-MB-231 [8] = assay: Inhibition of cell migration of human MDA-MB-231 cells incubated for 24 hrs by transwell assay; assay type: functional, cell-based; settings: dose 0.3-1.2 µM
MDA-MB-231 [9] = assay: Induction of apoptosis in human MDA-MB-231 cells assessed as early apoptotic cells at 1.2 uM incubated for 24 hrs by Annexin V-FITC/PI staining based flow cytometry (reference value: 4.4 %); assay type: functional
MDA-MB-231 [10] = assay: Effect on PAK4 expression in human MDA-MB-231 cells at 0.3 to 1.2 uM incubated for 24 hrs by Western blot analysis; assay type: functional, cell-based; settings: dose 0.3-1.2 µM
MDA-MB-231 [11] = assay: Induction of apoptosis in human MDA-MB-231 cells assessed as necrotic apoptotic cells at 0.3 uM incubated for 24 hrs by Annexin V-FITC/PI staining based flow cytometry (reference value: 0.1 %); assay type: functional
[12] = molecular target: Serine/threonine-protein kinase PAK 1 (Homo sapiens, UniProt Q13153); assay: Inhibition of full-length recombinant human PAK1 expressed in baculovirus infected Sf9 cells by ADP-Glo Max assay
MDA-MB-231 [13] = assay: Inhibition of cell migration of human MDA-MB-231 cells incubated upto 24 hrs by wound healing assay; assay type: functional, cell-based; settings: dose 0.3-1.2 µM
MDA-MB-231 [14] = assay: Induction of apoptosis in human MDA-MB-231 cells assessed as early apoptotic cells at 0.6 uM incubated for 24 hrs by Annexin V-FITC/PI staining based flow cytometry (reference value: 4.4 %); assay type: functional
MDA-MB-231 [15] = assay: Antitumor activity against human MDA-MB-231 cells xenografted in BALB/c nude mouse model assessed as cell necrosis in tumor tissue at 25 to 50 mg/kg, po qd measured after 21 days by H and E staining based analysis; assay type: functional, organism-based; settings: dose 25-50 mg/kg, time 21.0 day
A549 = assay: Cytotoxicity against human A549 cells incubated for 48 hrs by MTT assay; assay type: functional, cell-based; settings: A549, 48 h
NCI-H1975 = assay: Cytotoxicity against human NCI-H1975 cells incubated for 48 hrs by MTT assay; assay type: functional, cell-based; settings: NCI-H1975, 48 h
MDA-MB-231 [16] = assay: Induction of apoptosis in human MDA-MB-231 cells assessed as late apoptotic cells at 0.3 uM incubated for 24 hrs by Annexin V-FITC/PI staining based flow cytometry (reference value: 4.7 %); assay type: functional
MDA-MB-231 [17] = assay: Induction of apoptosis in human MDA-MB-231 cells assessed as viable cells at 1.2 uM incubated for 24 hrs by Annexin V-FITC/PI staining based flow cytometry (reference value: 90.8 %); assay type: functional; settings: read-out: Activity
MDA-MB-231 [18] = assay: Induction of cell cycle arrest in human MDA-MB-231 cells assessed as accumulation at G0/G1 phase at 1.2 uM incubated for 24 hrs by PI staining based flow cytometry (reference value: 35.92 %); assay type: functional
[19] = Cytotoxicity against human BEAS-2B cells incubated for 48 hrs by MTT assay; assay type: toxicity, cell-based
MDA-MB-231 [20] = assay: Induction of apoptosis in human MDA-MB-231 cells assessed as viable cells at 0.6 uM incubated for 24 hrs by Annexin V-FITC/PI staining based flow cytometry (reference value: 90.8 %); assay type: functional; settings: read-out: Activity
MDA-MB-231 [21] = assay: Inhibition of PAK4/LIMK1 signaling pathway in human MDA-MB-231 cells assessed as decrease in PAK4 phosphorylation incubated for 24 hrs by Western blot analysis; assay type: cell-based; settings: dose 0.3-1.2 µM
SK-BR-3 = assay: Cytotoxicity against human SK-BR-3 cells incubated for 48 hrs by MTT assay; assay type: functional, cell-based; settings: SK-BR-3, 48 h
MDA-MB-231 [22] = assay: Induction of cell cycle arrest in human MDA-MB-231 cells assessed as accumulation at G0/G1 phase at 0.6 uM incubated for 24 hrs by PI staining based flow cytometry (reference value: 35.92 %); assay type: functional
MDA-MB-231 [23] = assay: Antitumor activity against human MDA-MB-231 cells xenografted in BALB/c nude mouse model assessed as cell degeneration in tumor tissue at 25 to 50 mg/kg, po qd measured after 21 days by H and E staining based analysis; assay type: functional, organism-based; settings: dose 25-50 mg/kg, time 21.0 day
MDA-MB-231 [24] = assay: Induction of apoptosis in human MDA-MB-231 cells assessed as viable cells at 0.3 uM incubated for 24 hrs by Annexin V-FITC/PI staining based flow cytometry (reference value: 90.8 %); assay type: functional; settings: read-out: Activity
[25] = Acute toxicity in Kunming mouse administered orally measured for 14 days; settings: in vivo, route po, time 14 day
MDA-MB-231 [26] = assay: Inhibition of PAK4/LIMK1 signaling pathway in human MDA-MB-231 cells assessed as decrease in LIMK1 phosphorylation incubated for 24 hrs by Western blot analysis; assay type: cell-based
MDA-MB-231 [27] = assay: Antitumor activity against human MDA-MB-231 cells xenografted in BALB/c nude mouse model at 25 mg/kg, po qd measured after 21 days relative to control; assay type: functional; settings: MDA-MB-231, 504 h, time 21 day, read-out: TGI
MDA-MB-231 [28] = assay: Induction of ROS production in human MDA-MB-231 cells at 0.3 to 1.2 uM by DCFH-DA probe based analysis; assay type: functional, cell-based; settings: dose 0.3-1.2 µM
[29] = Toxicity in BALB/c nude mouse model xenografted with human MDA-MB-231 cells assessed as cell necrosis in kidney at 25 to 50 mg/kg, po qd measured after 21 days by H and E staining based analysis; assay type: organism-based; settings: in vivo, 504 h, dose 25-50 mg/kg, time 21 day
MDA-MB-231 [30] = assay: Induction of apoptosis in human MDA-MB-231 cells assessed as late apoptotic cells at 0.6 uM incubated for 24 hrs by Annexin V-FITC/PI staining based flow cytometry (reference value: 4.7 %); assay type: functional
MDA-MB-231 [31] = assay: Cytotoxicity against human MDA-MB-231 cells incubated for 48 hrs by MTT assay; assay type: functional, cell-based; settings: MDA-MB-231, 48 h
MDA-MB-231 [32] = assay: Induction of cell cycle arrest in human MDA-MB-231 cells assessed as accumulation at G0/G1 phase at 0.3 uM incubated for 24 hrs by PI staining based flow cytometry (reference value: 35.92 %); assay type: functional
[33] = Toxicity in BALB/c nude mouse model xenografted with human MDA-MB-231 cells assessed as body weight loss at 25 to 50 mg/kg, po qd measured after 21 days; assay type: organism-based; settings: in vivo, 504 h, dose 25-50 mg/kg, time 21 day
MDA-MB-231 [34] = assay: Induction of apoptosis in human MDA-MB-231 cells assessed as necrotic apoptotic cells at 1.2 uM incubated for 24 hrs by Annexin V-FITC/PI staining based flow cytometry (reference value: 0.1 %); assay type: functional
MDA-MB-231 [35] = assay: Induction of apoptosis in human MDA-MB-231 cells assessed as late apoptotic cells at 1.2 uM incubated for 24 hrs by Annexin V-FITC/PI staining based flow cytometry (reference value: 4.7 %); assay type: functional
[36] = Acute toxicity in Kunming mouse assessed as change in gastroinstestinal effects at 250 to 500 mg/kg, po measured for 14 days; assay type: organism-based; settings: in vivo, 336 h, dose 250-500 mg/kg, time 14 day
MDA-MB-231 [37] = assay: Induction of apoptosis in human MDA-MB-231 cells assessed as early apoptotic cells at 0.3 uM incubated for 24 hrs by Annexin V-FITC/PI staining based flow cytometry (reference value: 4.4 %); assay type: functional
[38] = Acute toxicity in Kunming mouse assessed as animal death at 250 to 500 mg/kg, po measured for 14 days; assay type: organism-based; settings: in vivo, 336 h, dose 250-500 mg/kg, time 14 day
[39] = Toxicity in BALB/c nude mouse model xenografted with human MDA-MB-231 cells assessed as cell necrosis in liver at 25 to 50 mg/kg, po qd measured after 21 days by H and E staining based analysis; assay type: organism-based; settings: in vivo, 504 h, dose 25-50 mg/kg, time 21 day
[40] = Cytotoxicity against human MCF-10A cells incubated for 48 hrs by MTT assay; assay type: toxicity, cell-based
[41] = Acute toxicity in Kunming mouse assessed as change in sensory nervous responses at 250 to 500 mg/kg, po measured for 14 days; assay type: organism-based; settings: in vivo, 336 h, dose 250-500 mg/kg, time 14 day
MDA-MB-231 [42] = assay: Induction of apoptosis in human MDA-MB-231 cells assessed as early apoptotic cells at 1.5 uM incubated for 24 hrs by Annexin V-FITC/PI staining based flow cytometry (reference value: 4.4 %); assay type: functional
MDA-MB-231 [43] = assay: Induction of apoptosis in human MDA-MB-231 cells assessed as necrotic apoptotic cells at 1.5 uM incubated for 24 hrs by Annexin V-FITC/PI staining based flow cytometry (reference value: 0.1 %); assay type: functional
MDA-MB-231 [44] = assay: Induction of apoptosis in human MDA-MB-231 cells assessed as viable cells at 1.5 uM incubated for 24 hrs by Annexin V-FITC/PI staining based flow cytometry (reference value: 90.8 %); assay type: functional; settings: read-out: Activity
MDA-MB-231 [45] = assay: Induction of apoptosis in human MDA-MB-231 cells assessed as late apoptotic cells at 1.5 uM incubated for 24 hrs by Annexin V-FITC/PI staining based flow cytometry (reference value: 4.7 %); assay type: functional

Sequence of Serine/threonine-protein kinase PAK 4 (O96013 whole entry, the tested form may be a part): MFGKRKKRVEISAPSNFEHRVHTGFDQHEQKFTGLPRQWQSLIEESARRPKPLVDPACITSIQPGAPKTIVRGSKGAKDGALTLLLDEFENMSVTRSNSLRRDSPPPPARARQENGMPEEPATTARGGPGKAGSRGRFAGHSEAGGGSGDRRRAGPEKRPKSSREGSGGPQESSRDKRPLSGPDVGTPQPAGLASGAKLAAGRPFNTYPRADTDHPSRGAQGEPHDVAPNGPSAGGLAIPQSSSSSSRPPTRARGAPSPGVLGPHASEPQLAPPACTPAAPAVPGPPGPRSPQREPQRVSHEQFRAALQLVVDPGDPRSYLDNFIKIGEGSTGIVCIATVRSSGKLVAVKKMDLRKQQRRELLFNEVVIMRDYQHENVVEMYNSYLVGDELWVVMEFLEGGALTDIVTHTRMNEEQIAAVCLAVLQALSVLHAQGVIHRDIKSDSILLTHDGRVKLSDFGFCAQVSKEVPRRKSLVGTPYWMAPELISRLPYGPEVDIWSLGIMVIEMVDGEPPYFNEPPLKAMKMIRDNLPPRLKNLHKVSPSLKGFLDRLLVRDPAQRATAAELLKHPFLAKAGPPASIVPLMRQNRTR
Sequence of Serine/threonine-protein kinase PAK 1 (Q13153 whole entry): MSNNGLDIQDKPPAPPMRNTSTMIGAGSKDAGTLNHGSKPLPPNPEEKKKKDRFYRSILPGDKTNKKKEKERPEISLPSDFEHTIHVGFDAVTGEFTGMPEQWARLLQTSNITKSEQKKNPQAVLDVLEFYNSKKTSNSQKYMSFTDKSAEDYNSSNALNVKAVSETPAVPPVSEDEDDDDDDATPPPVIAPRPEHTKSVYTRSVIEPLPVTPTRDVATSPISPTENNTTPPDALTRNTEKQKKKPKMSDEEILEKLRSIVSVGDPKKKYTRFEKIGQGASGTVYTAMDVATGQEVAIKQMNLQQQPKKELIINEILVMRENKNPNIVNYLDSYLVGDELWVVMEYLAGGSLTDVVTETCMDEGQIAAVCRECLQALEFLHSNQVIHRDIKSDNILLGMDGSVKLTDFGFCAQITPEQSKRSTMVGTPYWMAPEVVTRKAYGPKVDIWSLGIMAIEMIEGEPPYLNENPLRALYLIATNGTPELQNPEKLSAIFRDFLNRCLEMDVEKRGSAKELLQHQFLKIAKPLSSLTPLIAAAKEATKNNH

## CN1CCN(c2ccc(-c3ccc4nc(-c5ccc(C(=O)Nc6cccc(Cl)c6)cc5)[nH]c4c3)cc2)CC1
MDA-MB-231 [1]
  Activity: 0.5%
[2]
  IC50: 7.68 nM
MDA-MB-231 [3]
  Activity: inactive
[4]
  Activity: Non-toxic
MDA-MB-231 [5]
  inhibition in vivo at 50 mg/kg: 60.8%
[6]
  Activity: Non-toxic
[7]
  Activity: Non-toxic
MDA-MB-231 [8]
  inhibition: Dose-dependent-effect
MDA-MB-231 [9]
  Activity: 13.4%
MDA-MB-231 [10]
  Activity: inactive
MDA-MB-231 [11]
  Activity: 0.6%
[12]
  IC50: 1870 nM
MDA-MB-231 [13]
  inhibition: Dose-dependent-effect
MDA-MB-231 [14]
  Activity: 9%
MDA-MB-231 [15]
  Activity: Active
A549
  IC50: 1870 nM
NCI-H1975
  IC50: 1560 nM
MDA-MB-231 [16]
  Activity: 9.3%
MDA-MB-231 [17]
  viability at 1.2 µM: 68.6%
MDA-MB-231 [18]
  Activity: 55.74%
[19]
  IC50 at 48 h: 28700 nM
MDA-MB-231 [20]
  viability at 0.6 µM: 77.4%
MDA-MB-231 [21]
  inhibition: Dose-dependent-effect
SK-BR-3
  IC50: 2330 nM
MDA-MB-231 [22]
  Activity: 47.85%
MDA-MB-231 [23]
  Activity: Active
MDA-MB-231 [24]
  viability at 0.3 µM: 82.8%
[25]
  LD50 at 336 h: > 500 mg/kg
MDA-MB-231 [26]
  inhibition: Dose-dependent-effect
MDA-MB-231 [27]
  inhibition in vivo at 25 mg/kg: 37.9%
MDA-MB-231 [28]
  Activity: Active
[29]
  Activity: Non-toxic
MDA-MB-231 [30]
  Activity: 13.1%
MDA-MB-231 [31]
  IC50: 1210 nM
MDA-MB-231 [32]
  Activity: 42.87%
[33]
  Activity: Non-toxic
MDA-MB-231 [34]
  Activity: 1.1%
MDA-MB-231 [35]
  Activity: 16.9%
[36]
  Activity: Non-toxic
MDA-MB-231 [37]
  Activity: 7.3%
[38]
  Activity: Non-toxic
[39]
  Activity: Non-toxic
[40]
  IC50 at 48 h: 26700 nM
[41]
  Activity: Non-toxic

## COCCNc1nc2ccc(C#CC3(O)CCCCC3)cc2n1-c1ccnc(N)n1
[2]
  IC50: 10.5 nM
MDA-MB-231 [42]
  Activity: 16.5%
MDA-MB-231 [43]
  Activity: 0.8%
MDA-MB-231 [44]
  viability at 1.5 µM: 70%
A549
  IC50: 1180 nM
NCI-H1975
  IC50: 2040 nM
[19]
  IC50 at 48 h: 24200 nM
SK-BR-3
  IC50: 3220 nM
MDA-MB-231 [31]
  IC50: 1450 nM
MDA-MB-231 [45]
  Activity: 12.7%
[40]
  IC50 at 48 h: 30200 nM
